Test results from PubChem BioAssay (NCI).
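GI50 marks 50% less growth. TGI is the concentration that stops growth completely.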

Assays:
Experiment in all cases: NCI tumour cell line growth inhibition, 384-well format
786-0 renal = test system: 786-0 renal
A498 renal = test system: A498 renal
A549 NSCLC = test system: A549 NSCLC
ACHN renal = test system: ACHN renal
BT-549 breast = test system: BT-549 breast
CAKI-1 renal = test system: CAKI-1 renal
CCRF-CEM leukemia = test system: CCRF-CEM leukemia
COLO 205 colon = test system: COLO 205 colon
DU-145 prostate = test system: DU-145 prostate
EKVX NSCLC = test system: EKVX NSCLC
HCC-2998 colon = test system: HCC-2998 colon
HCT-116 colon = test system: HCT-116 colon
HCT-15 colon = test system: HCT-15 colon
HL-60(TB) leukemia = test system: HL-60(TB) leukemia
HOP-62 NSCLC = test system: HOP-62 NSCLC
HOP-92 NSCLC = test system: HOP-92 NSCLC
HS 578T breast = test system: HS 578T breast
HT29 colon = test system: HT29 colon
IGROV1 ovarian = test system: IGROV1 ovarian
K-562 leukemia = test system: K-562 leukemia
KM12 colon = test system: KM12 colon
LOX IMVI melanoma = test system: LOX IMVI melanoma
M14 melanoma = test system: M14 melanoma
MALME-3M melanoma = test system: MALME-3M melanoma
MCF7 breast = test system: MCF7 breast
MDA-MB-231 breast = test system: MDA-MB-231 breast
MDA-MB-435 melanoma = test system: MDA-MB-435 melanoma
MDA-MB-468 breast = test system: MDA-MB-468 breast
MOLT-4 leukemia = test system: MOLT-4 leukemia
NCI-H226 lung = test system: NCI-H226 lung
NCI-H23 lung = test system: NCI-H23 lung
NCI-H322M lung = test system: NCI-H322M lung
NCI-H460 NSCLC = test system: NCI-H460 NSCLC
NCI-H522 lung = test system: NCI-H522 lung
NCI/ADR-RES ovarian = test system: NCI/ADR-RES ovarian
OVCAR-3 ovarian = test system: OVCAR-3 ovarian
OVCAR-4 ovarian = test system: OVCAR-4 ovarian
OVCAR-8 ovarian = test system: OVCAR-8 ovarian
PC-3 prostate = test system: PC-3 prostate
RPMI-8226 leukemia = test system: RPMI-8226 leukemia
RXF 393 renal = test system: RXF 393 renal
SF-268 CNS = test system: SF-268 CNS
SF-295 CNS = test system: SF-295 CNS
SF-539 CNS = test system: SF-539 CNS
SK-MEL-28 melanoma = test system: SK-MEL-28 melanoma
SK-MEL-5 melanoma = test system: SK-MEL-5 melanoma
SK-OV-3 ovarian = test system: SK-OV-3 ovarian
SN12C renal = test system: SN12C renal
SNB-19 CNS = test system: SNB-19 CNS
SNB-75 CNS = test system: SNB-75 CNS
SR leukemia = test system: SR leukemia
SW-620 colon = test system: SW-620 colon
T-47D breast = test system: T-47D breast
TK-10 renal = test system: TK-10 renal
U251 glioblastoma = test system: U251 glioblastoma
UACC-257 melanoma = test system: UACC-257 melanoma

## Nc1ccccc1NC(=O)c1ccc(CNc2nccc(-c3cccnc3)n2)cc1
786-0 renal
  GI50: 390 nM
  TGI: 2360 nM
A498 renal
  GI50: 261 nM
  TGI: 1110 nM
A549 NSCLC
  GI50: 621 nM
  TGI: 2370 nM
ACHN renal
  GI50: 348 nM
  TGI: 1200 nM
BT-549 breast
  GI50: 497 nM
  TGI: 2390 nM
CAKI-1 renal
  GI50: 318 nM
  TGI: 1200 nM
CCRF-CEM leukemia
  GI50: 131 nM
  TGI: 266 nM
COLO 205 colon
  GI50: 292 nM
  TGI: 741 nM
DU-145 prostate
  GI50: 302 nM
  TGI: 1420 nM
EKVX NSCLC
  GI50: 766 nM
  TGI: 18100 nM
HCC-2998 colon
  GI50: 342 nM
  TGI: 1200 nM
HCT-116 colon
  GI50: 136 nM
  TGI: 350 nM
HCT-15 colon
  GI50: 336 nM
  TGI: 1310 nM
HL-60(TB) leukemia
  GI50: 113 nM
  TGI: 236 nM
HOP-62 NSCLC
  GI50: 255 nM
  TGI: 1260 nM
HOP-92 NSCLC
  GI50: 219 nM
  TGI: 823 nM
HS 578T breast
  GI50: 217 nM
  TGI: 498 nM
HT29 colon
  GI50: 285 nM
  TGI: 1120 nM
IGROV1 ovarian
  GI50: 235 nM
  TGI: 808 nM
K-562 leukemia
  GI50: 120 nM
  TGI: 357 nM
KM12 colon
  GI50: 400 nM
  TGI: 3850 nM
LOX IMVI melanoma
  GI50: 175 nM
  TGI: 322 nM
M14 melanoma
  GI50: 456 nM
  TGI: 1640 nM
MALME-3M melanoma
  GI50: 150 nM
  TGI: 298 nM
MCF7 breast
  GI50: 213 nM
  TGI: 1090 nM
MDA-MB-231 breast
  GI50: 371 nM
  TGI: 3250 nM
MDA-MB-435 melanoma
  GI50: 209 nM
  TGI: 419 nM
MDA-MB-468 breast
  GI50: 234 nM
  TGI: 592 nM
MOLT-4 leukemia
  GI50: 150 nM
  TGI: 285 nM
NCI-H226 lung
  GI50: 543 nM
  TGI: 2120 nM
NCI-H23 lung
  GI50: 248 nM
  TGI: 1320 nM
NCI-H322M lung
  GI50: 410 nM
  TGI: 1790 nM
NCI-H460 NSCLC
  GI50: 216 nM
  TGI: 1300 nM
NCI-H522 lung
  GI50: 301 nM
  TGI: 1390 nM
NCI/ADR-RES ovarian
  GI50: 332 nM
  TGI: 1270 nM
OVCAR-3 ovarian
  GI50: 374 nM
  TGI: 1680 nM
OVCAR-4 ovarian
  GI50: 371 nM
  TGI: 1670 nM
OVCAR-8 ovarian
  GI50: 242 nM
  TGI: 1180 nM
PC-3 prostate
  GI50: 408 nM
  TGI: 8810 nM
RPMI-8226 leukemia
  GI50: 28.2 nM
  TGI: 75.2 nM
RXF 393 renal
  GI50: 114 nM
  TGI: 426 nM
SF-268 CNS
  GI50: 225 nM
  TGI: 555 nM
SF-295 CNS
  GI50: 159 nM
  TGI: 306 nM
SF-539 CNS
  GI50: 473 nM
  TGI: 2490 nM
SK-MEL-28 melanoma
  GI50: 190 nM
  TGI: 368 nM
SK-MEL-5 melanoma
  GI50: 196 nM
  TGI: 359 nM
SK-OV-3 ovarian
  GI50: 258 nM
  TGI: 1380 nM
SN12C renal
  GI50: 593 nM
  TGI: 1850 nM
SNB-19 CNS
  GI50: 740 nM
  TGI: 2540 nM
SNB-75 CNS
  GI50: 386 nM
  TGI: 7580 nM
SR leukemia
  GI50: 32.6 nM
  TGI: 148 nM
SW-620 colon
  GI50: 208 nM
  TGI: 657 nM
T-47D breast
  GI50: 198 nM
  TGI: 409 nM
TK-10 renal
  GI50: 244 nM
  TGI: 1180 nM
U251 glioblastoma
  GI50: 159 nM
  TGI: 333 nM
UACC-257 melanoma
  GI50: 169 nM
  TGI: 344 nM
